Entries after “also recorded” stand apart in the source; their conditions may differ.
How the values were obtained:
[1] = from prescribing information; cited from earlier work
[2] = Next-day driving performance on the CRCDS automobile driving simulator after a bedtime dose; format: in vivo, human; details: bedtime dose tasimelteon 20 mg or zopiclone 7.5 mg
Procedure: In this study, 48 healthy volunteers operate an automobile driving simulator the moming after being administered a bedtime dose of tasimelteon 20 mg, zopiclone 7.5 mg, or placebo. Volunteers are instructed to operate the driving simulator for about one hour with a speed of 55 mph while maintaining lane position.
Driving performance is assessed by a number of validated measures, including standard deviation from lateral position (SDLP), a measure of lane weaving.
An SDLP of 4.4 cm as compared to control is considered equivalent to the driving impairment associated with a blood alcohol content (BAC) of 0.05%, the threshold for drunk driving in many countries.

[3] = Tasimelteon jet lag disorder (JLD) clinical program; format: in vivo, human; details: individuals experiencing circadian advances of five to eight hours
[4] = 10 mg, 20 mg, 50 mg and 100 mg daily doses; 5-hour advance in sleep-wake cycle; cited from earlier work
[5] = preclinical models of acute phase-shifting and chronic re-entrainment; cited from earlier work

Cc1ccc(-n2nccn2)c(C(=O)N2CCN(c3nc4cc(Cl)ccc4o3)CC[C@H]2C)c1 [BELSOMRA]
driving performance in clinical studies (in words) [1]: clinically meaningful impaired driving performance in some subjects

CN1CCN(C(=O)OC2c3nccnc3C(=O)N2c2ccc(Cl)cn2)CC1 (stereo not drawn) [zopiclone]
SDLP Difference (least squares means) vs Placebo ([2]; 48 healthy volunteers, driving simulator 9 hours post-dose, about one hour at 55 mph): 4.14 cm | next-day driving impairment compared to placebo (in words) ([2]; evaluated nine hours after dosing): does significantly impair driving ability; also recorded: meaningful and significant effect on lane weaving

CCC(=O)NC[C@@H]1C[C@H]1c1cccc2c1CCO2 [tasimelteon]
benefit in jet lag disorder (in words) [3]: significant benefits | shifting dim light melatonin onset and sleep efficacy relative to placebo (in words) [4]: positive outcomes | chronobiotic activity (in words) [5]: potent chronobiotic activity

Reference: patent publication US20240226056A1, “Sleep or Post-Sleep Performance” (Vanda Pharmaceuticals Inc., priority 2018, published 2024)
